pEC50, pIC50: −log10 of the molar value.
Key:
PRMT5/MEP50 = target: T1, PRMT5/MEP50 (Homo sapiens, UniProt O14744); experiment: PRMT5 Biochemical Assay (PRMT5/MEP50 enzyme assay on peptide substrate, 3H-SAM Flashplate); settings: Table D-2; read-out: Biochemical IC50
T1 construct: Expressed full-length human Flag-PRMT5/6His-MeP50 protein complex was purified; made in house; host or cells: Spodoptera frugiperda (SF9) insect cells, baculovirus (pDEST8)

Z-138 cells = experiment: Z-138 Proliferation Assay (Cell Titer Glo, 5 days); format: cell-based; settings: Homo sapiens, Table D-2
Summary of the method: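 Exponentially growing Z-138 cells (10,000 cells/ml) in RPMI 1640 with 10% FBS are exposed to nine-point 3-fold dilutions (final top concentration 20 μM, 0.2% DMSO) for 5 days at 37° C. Viability is measured as ATP by CellTiter-Glo luminescence. The 50% inhibitory concentration comes from a 4-parameter fit.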

T1 sequence (O14744 with tags, fused parts or gaps): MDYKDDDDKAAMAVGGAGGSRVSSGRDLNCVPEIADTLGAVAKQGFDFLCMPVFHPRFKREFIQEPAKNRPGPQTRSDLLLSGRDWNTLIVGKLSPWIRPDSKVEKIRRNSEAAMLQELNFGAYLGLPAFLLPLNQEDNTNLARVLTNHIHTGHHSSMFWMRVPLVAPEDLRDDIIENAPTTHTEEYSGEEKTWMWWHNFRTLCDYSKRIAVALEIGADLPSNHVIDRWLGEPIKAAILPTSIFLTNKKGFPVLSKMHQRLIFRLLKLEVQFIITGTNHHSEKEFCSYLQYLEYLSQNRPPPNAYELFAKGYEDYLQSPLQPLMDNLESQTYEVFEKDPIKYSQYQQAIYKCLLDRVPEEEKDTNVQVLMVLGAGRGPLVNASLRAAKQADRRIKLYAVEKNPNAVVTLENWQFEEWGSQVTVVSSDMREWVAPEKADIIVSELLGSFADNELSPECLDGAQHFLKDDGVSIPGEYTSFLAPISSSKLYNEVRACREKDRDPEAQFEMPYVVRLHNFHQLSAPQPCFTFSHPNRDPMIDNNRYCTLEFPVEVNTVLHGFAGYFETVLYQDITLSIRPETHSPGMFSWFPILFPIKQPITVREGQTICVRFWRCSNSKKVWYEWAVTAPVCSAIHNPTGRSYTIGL
T1 sequence (Q9BQA1 with tags, fused parts or gaps partner limits assumed): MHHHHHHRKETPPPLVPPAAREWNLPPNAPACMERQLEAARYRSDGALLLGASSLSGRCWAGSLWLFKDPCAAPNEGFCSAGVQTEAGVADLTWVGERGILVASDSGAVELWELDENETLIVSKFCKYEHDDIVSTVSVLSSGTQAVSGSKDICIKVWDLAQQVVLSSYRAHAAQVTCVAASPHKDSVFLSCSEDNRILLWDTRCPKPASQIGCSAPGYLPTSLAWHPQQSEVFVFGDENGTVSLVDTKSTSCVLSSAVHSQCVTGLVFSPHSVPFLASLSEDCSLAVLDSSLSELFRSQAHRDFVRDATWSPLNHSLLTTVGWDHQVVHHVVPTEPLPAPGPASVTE

| pIC50 (PRMT5/MEP50) | SMILES | pEC50 (Z-138 cells) |
| --- | --- | --- |
| 6.00 to 7.00 | N#Cc1ccccc1-c1cccc(OCC(O)CN2CCc3ccccc3C2)c1 (stereo not drawn) [Compound D93] | 4.40 to 5.00 |
| 6.00 to 7.00 | N#Cc1ccc(-c2cccc(OCC(O)CN3CCc4ccccc4C3)c2)cc1 (stereo not drawn) [Compound D94] | 4.40 to 5.00 |
| 6.00 to 7.00 | Oc1cccc(-c2cccc(OCC(O)CN3CCc4ccccc4C3)c2)c1 (stereo not drawn) [Compound D95] | 4.40 to 5.00 |

From patent US20150344457A1, “METHODS OF INHIBITING PRMT5” (EPIZYME, INC., priority 2012, published 2015)
